Source: paper PMC5706069 (2017)

Experiments:
[1] = system: acute thermal nociception; experiment: Hot-plate assay in mice after sc administration; assay type: in vivo; conditions: Mus musculus, 0.5 h, read-out: antinociceptive activity hot-plate assay ED50 (95% CI)
human MOR [2] = target: T1, human MOR (Homo sapiens, UniProt P35372); experiment: Competition binding assay, [3H]DAMGO, CHO-hMOR cell membranes; conditions: for Ki: read-out: opioid receptor binding, Ki, affinity MOR, CHO-hMOR membranes, [3H]DAMGO, mean ± SEM, at least three experiments
human MOR [3] = target: T1, human MOR; experiment: [35S]GTPγS binding assay using CHO-hMOR cell membranes; assay type: biochemical; conditions: for Emax: read-out: functional activity [35S]GTPγS MOR % stim; for EC50: read-out: functional activity [35S]GTPγS MOR EC50, mean ± SEM
MOR = conditions: 14-methoxy group introduced into 1; ref 6a, 6b; cited from earlier work
human KOR = human KOR (Homo sapiens, UniProt P41145); experiment: Competition binding assay, [3H]HS665, CHO-hKOR cell membranes; conditions: for selectivity KOR/MOR: ratio of Ki values; for Ki: read-out: opioid receptor binding, Ki, affinity KOR, CHO-hKOR membranes, [3H]HS665, mean ± SEM, at least three experiments
human DOR = human DOR (Homo sapiens, UniProt P41143); experiment: Competition binding assay, [3H]diprenorphine, CHO-hDOR cell membranes; conditions: for selectivity DOR/MOR: ratio of Ki values; for Ki: read-out: opioid receptor binding, Ki, affinity DOR, CHO-hDOR membranes, [3H]diprenorphine, mean ± SEM, at least three experiments
antinociception = conditions: cited from earlier work
[4] = system: gastrointestinal motility; conditions: ref 6b; cited from earlier work

| SMILES | ED50 [1] | Ki (human MOR [2]) | Emax (human MOR [3]) | EC50 (human MOR [3]; CHO-hMOR membranes) | increase in MOR affinity vs oxymorphone (1) (MOR) | selectivity KOR/MOR (human KOR) | Ki (human KOR) | selectivity DOR/MOR (human DOR) | Ki (human DOR) | increase in antinociceptive potency vs oxymorphone (1) (antinociception; ref 6a, 6b) | increase in MOR affinity, 3a vs 3 (human MOR [2]; human MOR, Ki ratio) | increase in the EC50 of 3a compared to 3 (human MOR [3]; [35S]GTPγS, human MOR) | higher MOR/KOR selectivity ratio than 3 (human KOR; 3a vs 3) | higher MOR/DOR selectivity ratio than 3 (human DOR; 3a vs 3) | % stim of the reference full agonist DAMGO in [35S]GTPγS binding (human MOR [3]; CHO-hMOR membranes, DAMGO's own stimulation, the reference for efficacies) | inhibition of gastrointestinal motility [4] | less constipating than 2 [4] | less constipating than morphine [4] | increased antinociceptive potency compared to 2 (antinociception; ref 6b) | decrease in affinity to the DOR, 1a vs 1 (human DOR; human DOR, Ki ratio) |
| --- | --- | --- | --- | --- | --- | --- | --- | --- | --- | --- | --- | --- | --- | --- | --- | --- | --- | --- | --- | --- |
| CO[C@@]12CCC(=O)[C@@H]3Oc4c(O)ccc5c4[C@@]31CCN(C)[C@@H]2C5 [Compound 2, 14-O-methyloxymorphone] | 0.0142 mg/kg | 0.32 ± 0.08 nM | 96.4 ± 5% | 1.45 ± 0.32 nM | ~9 fold | 32 | 10.1 ± 3.1 nM | 28 | 8.8 ± 0.35 nM | 40 fold | – | – | – | – | – | – | – | – | – | – |
| CN1CC[C@]23c4c5ccc(O)c4O[C@H]2CCC[C@@]3(OCc2ccccc2)[C@H]1C5 [Compound 3a, 14β-Benzyloxy-4,5α-epoxy-3-hydroxy-17-methylmorphinan] | 0.00241 mg/kg | 0.048 ± 0.011 nM | 103 ± 8% | 0.13 ± 0.03 nM | – | 18 | 0.85 ± 0.05 nM | – | 0.89 ± 0.29 nM | – | up to 9 fold | ~2.5 fold | ~6 fold | about 9 fold | – | – | – | – | – | – |
| C[C@@H](NC(=O)[C@@H](N)Cc1ccc(O)cc1)C(=O)NCC(=O)N(C)[C@@H](Cc1ccccc1)C(=O)NCCO [DAMGO, [D-Ala^2,Me-Phe^4,Gly-ol^5]enkephalin, reference compound] | – | – | – | – | – | – | – | – | – | – | – | – | – | – | 221 ± 13% | – | – | – | – | – |
| CO[C@@]12CCC(=O)[C@]3(C)Oc4c(O)ccc5c4[C@@]31CCN(C)[C@@H]2C5 [Compound 4, 14-methoxymetopon] | 0.0271 mg/kg | – | 99.2 ± 2.8% | 3.28 ± 0.81 nM | – | 60 | 15.1 ± 0.9 nM | 79 | 19.8 ± 1.3 nM | – | – | – | – | – | – | – | – | – | – | – |
| CO[C@@]12CCC[C@@H]3Oc4c(O)ccc5c4[C@@]31CCN(C)[C@@H]2C5 [Compound 2a, 4,5α-Epoxy-3-hydroxy-14β-methoxy-17-methylmorphinan] | 0.0173 mg/kg | 0.24 ± 0.08 nM | 105 ± 6% | 1.37 ± 0.26 nM | – | 17 | 3.99 ± 0.63 nM | 36 | 8.64 ± 2.25 nM | – | – | – | – | – | – | – | – | – | – | – |
| CN1CC[C@]23c4c5ccc(O)c4O[C@H]2C(=O)CC[C@@]3(OCc2ccccc2)[C@H]1C5 [Compound 3, 14-O-benzyloxymorphone] | 0.00238 mg/kg | 0.45 ± 0.1 nM | 101 ± 5% | 0.32 ± 0.16 nM | – | 2.8 | 1.27 ± 0.24 nM | 2.3 | 1.05 ± 0.42 nM | – | – | – | – | – | – | negligible | 7 fold | 2.5 fold | 5 fold | – |
| CO[C@@]12CCC[C@]3(C)Oc4c(O)ccc5c4[C@@]31CCN(C)[C@@H]2C5 [Compound 4a, 5β,17-Dimethyl-4,5α-epoxy-3-hydroxy-14β-methoxymorphinan] | 0.0251 mg/kg | 0.34 ± 0.08 nM | – | 2.95 ± 0.54 nM | – | – | 7.92 ± 4.47 nM | – | 12.9 ± 1.6 nM | – | – | – | – | – | – | – | – | – | – | – |
| CN1CC[C@]23c4c5ccc(O)c4O[C@H]2C(=O)CC[C@@]3(O)[C@H]1C5 [Compound 1, oxymorphone, reference compound] | 0.382 mg/kg | – | – | – | – | – | – | – | – | – | – | – | – | – | – | – | – | – | – | – |
| CN1CC[C@]23c4c5ccc(O)c4O[C@H]2CCC[C@@]3(O)[C@H]1C5 [Compound 1a, 3,14-Dihydroxy-4,5α-epoxy-17-methylmorphinan] | 0.383 mg/kg | 1.65 ± 0.5 nM | 104 ± 7% | 8.99 ± 2.19 nM | – | 13 | 21.6 ± 3.9 nM | 122 | 201 ± 80 nM | – | – | – | – | – | – | – | – | – | – | ~3 fold |
